Laboratory results reported in US7772271B2 (priority 2004, dated 2010).

SMILES	melting point [°C]
C[C@@H](OC(=O)Nc1ccc(-c2c(C#N)c3ccc(O[C@@H]4CCOC4)cc3n2C2CCC2)cc1)C(F)(F)F [Compound 2853]	189 to 190
CCCS(=O)(=O)Nc1ccc(-c2c(C#N)c3ccc(-c4c(C)noc4C)cc3n2C2CCC2)cc1 [Compound 2932]	224 to 225
CCCS(=O)(=O)Nc1ccc(-c2c(C#N)c3ccc(Oc4ncccc4C#N)cc3n2CC2CC2)c(Cl)c1 [Compound 3306]	218 to 220
N#Cc1c(-c2ccc(NS(=O)(=O)c3ccccc3)cc2)n(C2CCC2)c2cc(OC3CCOCC3)ccc12 [Compound 3091]	231 to 233
CCn1c(-c2ccc(OC(=O)N(C)CCOC)cc2)c(C#N)c2ccc(OC)cc21 [Compound 1385]	122 to 127
N#Cc1c(-c2ccc(NC(=O)OC3CCS(=O)(=O)CC3)cc2)n(C2CCC2)c2cc(Oc3ncccn3)ccc12 [Compound 3267]	181 to 212
CCCS(=O)(=O)Nc1ccc(-c2c(C#N)c3ccc(Oc4cccnc4Cl)cc3n2C2CCC2)cc1 [Compound 2945]	173 to 175
CC1CCc2cc(-c3c(C#N)c4ccc(Oc5ncccn5)cc4n3C3CCC3)ccc2NC1=O (centres unmarked) [Compound 3222]	233 to 235
CC(C)S(=O)(=O)Nc1ccc(-c2c(C#N)c3ccc(N4CCOCC4)cc3n2C2CCC2)cc1 [Compound 2801]	220
N#Cc1c(-c2ccc(Nc3nc(C(F)(F)F)cs3)cc2)n(C2CCC2)c2cc(Oc3ncccn3)ccc12 [Compound 3189]	241 to 245
CCn1c(-c2ccc(N3CCCS3(=O)=O)cc2)c(C#N)c2ccc(Oc3nccnc3C#N)cc21 [Compound 3196]	232 to 236
CC(C)Nc1ccc(-c2c(C#N)c3ccc(O[C@@H]4CCOC4)cc3n2C2CC2)cc1 [Compound 2818]	185 to 187
CCOc1ccc2c(C#N)c(-c3ccc(Nc4ncccn4)cc3)n(CC3CC3)c2c1 [Compound 3252]	223 to 224
CC(OC(=O)Nc1ccc(-c2c(C#N)c3ccc(OC4CCOC4)cc3n2C2CCC2)cc1)c1ccccc1 (centres unmarked) [Compound 1456]	183 to 184
CCOc1ccc2c(C#N)c(-c3ccc(C(=O)N4CC[C@@H](O)C4)cc3)n(C3CCC3)c2c1 [Compound 2251]	172 to 173
CS(=O)(=O)CCCOc1ccc2c(C#N)c(-c3ccc(NS(=O)(=O)C4CC4)cc3)n(C3CCC3)c2c1 [Compound 2957]	203 to 204
CC(OC(=O)Nc1ccc(-c2c(C#N)c3ccc(OCC(F)F)cc3n2C2CCC2)cc1Cl)C(F)(F)F (centres unmarked) [Compound 3051]	184 to 185
N#Cc1c(-c2cnc(NC3CCCC3)nc2)n(C2CCC2)c2cc(Oc3ncccn3)ccc12 [Compound 3330]	230 to 231
CCCS(=O)(=O)Nc1ccc(-c2c(C#N)c3ccc(Oc4ncccc4C#N)cc3n2C2CCC2)c(C)c1 [Compound 3273]	227 to 230
C[C@@H](OC(=O)Nc1ccc(-c2c(C#N)c3ccc(N4CCOCC4)cc3n2C2CC2)cc1)C1CC1 [Compound 2857]	176 to 179
CCCS(=O)(=O)Nc1ccc(-c2c(C#N)c3ccc(-c4ccnn4C)cc3n2C2CCC2)cc1 [Compound 3203]	241 to 242

SMILES	melting point [°C]
Cc1ccnc(Oc2ccc3c(C#N)c(-c4ccc(NS(=O)(=O)N[C@@H](C)C5CC5)cc4)n(C4CCC4)c3c2)n1 [Compound 3019]	227 to 229
CCn1c(-c2ccc(N3CCCS3(=O)=O)cc2)c(C#N)c2ccc(N3CCOCC3)cc21 [Compound 2926]	247 to 248
CCN(CC)C(=O)Nc1ccc(-c2c(C#N)c3ccc(OC)cc3n2CC)cc1 [Compound 1376]	165 to 167
C[C@@H](OC(=O)Nc1ccc(-c2c(C#N)c3ccc(N4CCOCC4)cc3n2CC2CC2)cc1)C1CC1 [Compound 2933]	167 to 173
CC(C)NC(=O)Nc1ccc(-c2c(C#N)c3ccc(N4CCOCC4)cc3n2C2CC2)cc1 [Compound 2855]	264
C[C@@H](OC(=O)Nc1ccc(-c2cc3ccc(Oc4nccnc4C#N)cc3n2CC2CC2)cc1)C(F)(F)F [Compound 3284]	99 to 101
CCCS(=O)(=O)Nc1ccc(-c2c(C#N)c3ccc(Oc4nccc(C)n4)cc3n2C2CC2)cc1 [Compound 2939]	239 to 241
Cc1csc(Nc2ccc(-c3c(C#N)c4ccc(OCCF)cc4n3C3CCC3)cc2)n1 [Compound 3205]	199 to 201
CC(OC(=O)Nc1ccc(-c2c(C#N)c3ccc(OC4CCOCC4)cc3n2C2CC2)cc1)C1CC1 (centres unmarked) [Compound 2647]	130 to 133
N#Cc1nccnc1Oc1ccc2c(C#N)c(-c3ccc(NS(=O)(=O)C4CCC4)cc3)n(CC3CC3)c2c1 [Compound 3295]	236 to 238
CCn1c(-c2cccc(NC(=O)N3CCN(C)CC3)c2)c(C#N)c2ccc(OC)cc21 [Compound 1375]	108 to 120
CC(C)NS(=O)(=O)Nc1ccc(-c2c(C#N)c3ccc(OC4CCOCC4)cc3n2C2CCC2)cc1 [Compound 2786]	183 to 185
N#Cc1c(-c2ccc(NS(=O)(=O)C3CC3)cc2)n(C2CCC2)c2cc(N3CCCC3)ccc12 [Compound 2960]	258 to 260
CCn1c(-c2ccc3c(ccn3S(=O)(=O)CC)c2)c(C#N)c2ccc(OC)cc21 [compound 1331]	157 to 160
N#Cc1c(-c2ccc(N)cc2)n(C2CC2)c2cc(OC3CCOC3)ccc12 (centres unmarked) [Compound 1443]	199 to 201
Cc1cc(Nc2ccc(-c3c(C#N)c4ccc(Oc5ncccn5)cc4n3C3CCC3)cc2)n(C)n1 [compound 3285, 1-cyclobutyl-2-[4-(2,5-dimethyl-2H-pyrazol-3-ylamino)-phenyl]-6-(pyrimidin-2-yloxy)-1H-indole-3-carbonitrile]	236 to 238
CCCS(=O)(=O)Nc1ccc(-c2c(C#N)c3ccc(Oc4nccc(C)n4)cc3n2CC2CC2)cc1 [Compound 2969]	181 to 183
CC(OC(=O)Nc1ccc(-c2c(C#N)c3ccc(OC4CCOCC4)cc3n2C2CCC2)cc1)c1ccccc1 (centres unmarked) [Compound 2618]	96 to 98
Cc1ccccc1CNc1ccc(-c2c(C#N)c3ccc(OC4CCOCC4)cc3n2C2CCC2)cc1 [Compound 3121]	168 to 172
CC(C)n1c(-c2ccc(NC(=O)O[C@H](C)C(F)(F)F)cc2)c(C#N)c2ccc(N3CCOCC3)cc21 [Compound 2952]	148 to 150
CCn1c(-c2ccc(NC(=O)OCCCl)cc2)c(C#N)c2ccc(OCCOC)cc21 [Compound 1373]	148 to 151

Further lines, results first:

melting point [°C]	SMILES
153 to 156	CCOc1ccc2c(C#N)c(-c3ccc(NCCc4ccccn4)cc3)n(C3CCC3)c2c1 [compound 1433, 1-cyclobutyl-6-ethoxy-2-[4-(2-pyridin-2-yl-ethylamino)-phenyl]-1H-indole-3-carbonitrile]
200 to 202	CC(OC(=O)Nc1ccc(-c2c(C#N)c3ccc(Oc4ncccn4)cc3n2C2CCC2)cc1)c1ccc(F)cc1 (centres unmarked) [Compound 2708]
205 to 210	C[C@@H](OC(=O)Nc1ccc(-c2c(C#N)c3ccc(N4CCCC4)cc3n2C2CCC2)cc1)C1CC1 [Compound 2985]
204 to 205	CC(C)OC(=O)Nc1ccc(-c2c(C#N)c3cc(OCCCn4cncn4)ccc3n2C2CCC2)cc1 [Compound 2605]
179 to 183	COc1ccnc(Oc2ccc3c(C#N)c(-c4ccc(NC(=O)OC(C)C)cc4)n(C4CCC4)c3c2)n1 [Compound 2739]
237 to 242	CCOc1ccc2c(C#N)c(-c3ccc(NC(=O)OC4CCN(S(=O)(=O)CC)CC4)cc3)n(C3CCC3)c2c1 [Compound 3070]
158 to 160	CCc1cnc(Oc2ccc3c(C#N)c(-c4ccc(NC(=O)O[C@H](C)C5CC5)cc4)n(C4CCC4)c3c2)nc1 [Compound 2923]
92 to 95	CC(OC(=O)Nc1ccc(-c2c(C#N)c3ccc(OCCNS(C)(=O)=O)cc3n2C2CCC2)cc1)C1CC1 (centres unmarked) [Compound 3228]
229 to 231	N#Cc1c(-c2ccc(NC(=O)OCc3ccccc3)cc2)n(C2CCC2)c2ccc(OCCCn3ccnc3)cc12 [Compound 2726]
192 to 198	CCOc1ccc2c(C#N)c(-c3ccc(NC(=O)NCc4ccco4)cc3)n(C3CCC3)c2c1 [Compound 1396]
197 to 199	CC(C)OC(=O)Nc1ccc(-c2c(C#N)c3ccc(OC4CCOCC4)cc3n2C2CCC2)cc1 [compound 2616, {4-[3-cyano-1-cyclobutyl-6-(tetrahydro-pyran-4-yloxy)-1H-indole-2-yl]-phenyl}-carbamic acid isopropyl ester]
183 to 185	C[C@@H](OC(=O)Nc1ccc(-c2c(C#N)c3ccc(-c4ncccc4C#N)cc3n2C2CCC2)cc1)C1CC1 [Compound 3243]
184 to 190	CCn1nnc(COc2ccc3c(C#N)c(-c4ccc(NC(=O)OC(C)C)cc4)n(C4CCC4)c3c2)n1 [Compound 2667]
111 to 122	C[C@@H](OC(=O)Nc1ccc(-c2c(C#N)c3ccc(-c4ccc(Cl)cn4)cc3n2C2CCC2)cc1)C1CC1 [Compound 3001]
203 to 206	C[C@@H](OC(=O)Nc1ccc(-c2c(C#N)c3ccc(OC(=O)NCCc4ccccc4)cc3n2C2CCC2)cc1)C1CC1 [Compound 3173]
208 to 213	CC(C)OC(=O)Nc1ccc(-c2c(C#N)c3ccc(N4CCCCC4)cc3n2C2CCC2)cc1 [Compound 2967]
238 to 243	CSc1nccc(Oc2ccc3c(C#N)c(-c4ccc(NC(=O)NC(C)C)cc4)n(C4CCC4)c3c2)n1 [Compound 3092]
202 to 205	CC(C)NC(=O)Oc1ccc2c(C#N)c(-c3ccc(NC(=O)O[C@H](C)C4CC4)cc3)n(C3CCC3)c2c1 [Compound 3174]
183 to 184	CCC(C)C(C)OC(=O)Nc1ccc(-c2c(C#N)c3ccc(OC4CCOC4)cc3n2C2CCC2)cc1 (centres unmarked) [Compound 1459]
178 to 184	CCOc1ccc2c(F)c(-c3ccc(NC(=O)OC(C)C)cc3)n(CC3CC3)c2c1 [compound 2640, [4-(1-Cyclopropylmethyl-6-ethoxy-3-fluoro-1H-indol-2-yl)-phenyl]-carbamic acid isopropyl ester]
